From the supplement of paper PMC10307832

How the values were obtained:
Assay in all cases: relative viability (nuclei count vs DMSO), 5 days (fraction); higher = more cells survive
[1] = compound: C=CC(=O)N1CCC[C@@H](n2nc(-c3ccc(Oc4ccccc4)cc3)c3c(N)ncnc32)C1 [Ibrutinib] + Cc1nc(NC(=O)N2CCC[C@H]2C(N)=O)sc1-c1ccnc(C(C)(C)C(F)(F)F)c1 [Alpelisib] (partner 2 µM)
Method in brief: (§1)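 Relative viability divides the nuclei count in treated wells by that in vehicle wells. Lung cancer cell lines were seeded in 1536-well plates, dosed by pin tool the next day, and fixed and stained after 5 days in one step with final 0.05% Triton X-100, 1% formaldehyde and 1 ug/ml Hoechst. Dosing was a single drug or a fixed anchor-drug dose plus five library-drug doses (not always all listed) in √10 steps, and values are medians of duplicate plates imaged at 4×.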

[2] = compound: C=CCc1cccc(/C=N/NC(=O)CN2CCN(Cc3ccccc3)CC2)c1O [PAC-1] + CS(=O)(=O)N1CCN(Cc2cc3nc(-c4cccc5[nH]ncc45)nc(N4CCOCC4)c3s2)CC1 [Pictilisib] (partner 1 µM)
Method in brief: as §1

[3] = compound: C=CC(=O)N1CCC[C@@H](n2nc(-c3ccc(Oc4ccccc4)cc3)c3c(N)ncnc32)C1 [Ibrutinib] + CC(=O)Nc1cccc(-n2c(=O)n(C3CC3)c(=O)c3c(Nc4ccc(I)cc4F)n(C)c(=O)c(C)c32)c1 [Trametinib] (partner 0.02 µM)
Method in brief: as §1

[4] = compound: C=CC(=O)Nc1cc(-n2c(=O)ccc3cnc4ccc(-c5ccc(NS(C)(=O)=O)cc5)cc4c32)ccc1C [BMX-IN-1] + Nc1ncn([C@H]2C[C@H](O)[C@@H](CO)O2)c(=O)n1 [Decitabine] (partner 2 µM)
Method in brief: as §1

| Cell Line | relative viability ([1]; first compound 0.01581 µM) | relative viability ([1]; first compound 0.05 µM) | relative viability ([1]; first compound 0.1581 µM) | relative viability ([1]; first compound 0.5 µM) | relative viability ([2]; first compound 0.02 µM) | relative viability ([2]; first compound 0.06325 µM) | relative viability ([2]; first compound 0.2 µM) | relative viability ([2]; first compound 2 µM) | relative viability ([3]; first compound 0.005 µM) | relative viability ([3]; first compound 0.01581 µM) | relative viability ([3]; first compound 0.05 µM) | relative viability ([3]; first compound 0.1581 µM) | relative viability ([3]; first compound 0.5 µM) | relative viability ([4]; first compound 0.02 µM) | relative viability ([4]; first compound 0.2 µM) | relative viability ([4]; first compound 0.6325 µM) | relative viability ([4]; first compound 2 µM) | relative viability ([1]; first compound 0.005 µM) |
| --- | --- | --- | --- | --- | --- | --- | --- | --- | --- | --- | --- | --- | --- | --- | --- | --- | --- | --- |
| 201T | 0.97 | 1.03 | 1 | 0.938 | 0.561 | 0.702 | 0.75 | 0.672 | 0.721 | 0.708 | 0.695 | 0.712 | 0.683 | 0.819 | 0.847 | 0.864 | 0.918 | – |
| A549 | 0.681 | 0.634 | 0.854 | 0.761 | 0.483 | 0.511 | 0.509 | 0.487 | – | – | – | – | – | 0.289 | 0.115 | 0.284 | 0.293 | 0.624 |
| A-427 | 1.08 | 1.11 | 1.09 | 1.14 | 0.689 | 0.748 | 0.724 | 0.831 | 0.654 | 0.777 | 0.782 | – | 0.694 | 0.544 | 0.554 | 0.559 | 0.551 | 1.06 |
| ABC-1 | 0.813 | 1.05 | 1.17 | 0.983 | 0.624 | 0.665 | 0.545 | 0.74 | – | – | – | – | – | 1.22 | 1.31 | 1.15 | 1.16 | 0.922 |
| BEN | 0.906 | 0.944 | 0.891 | 1.06 | 0.557 | 0.534 | 0.536 | 0.51 | 0.897 | – | 1.06 | 0.974 | 0.794 | 0.7 | 0.755 | 0.792 | 0.674 | 0.785 |
| CAL-12T | 0.831 | 1.14 | 1.18 | 0.698 | 0.202 | 0.44 | 0.482 | 0.568 | 0.236 | 0.297 | 0.3 | 0.382 | 0.298 | – | – | – | – | – |
| COR-L23 | 0.702 | 0.73 | 0.775 | 0.865 | 0.853 | 0.848 | 0.644 | 0.855 | 0.393 | 0.574 | 0.621 | 0.647 | 0.756 | 0.467 | 0.45 | 0.484 | 0.438 | 0.947 |
| COR-L 105 | 0.762 | 0.866 | 1.11 | 0.43 | 0.397 | 0.397 | 0.167 | 0.411 | 0.381 | 0.384 | 0.407 | 0.419 | 0.339 | 0.563 | 0.671 | 0.654 | 0.672 | 0.899 |
| Calu-6 | 0.993 | – | 1.06 | 0.93 | 0.857 | 0.82 | 0.875 | 0.833 | – | – | – | – | – | – | – | – | – | 1.02 |
| ChaGo-K-1 | – | – | – | – | 0.817 | 0.818 | 0.925 | 0.627 | 0.907 | 0.879 | 0.922 | 0.857 | 0.854 | 0.512 | 0.549 | 0.551 | 0.519 | – |
| EBC-1 | 0.856 | 0.79 | 0.936 | 0.895 | 0.371 | 0.345 | 0.379 | 0.335 | – | – | – | – | – | – | – | – | – | 0.852 |
| EKVX | 0.776 | 0.829 | 0.799 | 0.562 | 0.453 | 0.415 | 0.374 | 0.488 | 0.322 | 0.343 | 0.392 | – | 0.215 | 0.333 | 0.281 | 0.617 | 0.381 | – |
| EMC-BAC-2 | 0.697 | 0.75 | 0.741 | 0.547 | 0.549 | 0.536 | 0.566 | 0.555 | 0.836 | 0.895 | – | – | 1.03 | 0.95 | 0.993 | 1.1 | 1.03 | 0.728 |
| EPLC-272H | 1.02 | 0.836 | 0.848 | 0.759 | – | 0.349 | 0.32 | 0.268 | – | 0.293 | 0.311 | 0.277 | 0.243 | 0.29 | 0.397 | 0.407 | 0.355 | – |
| H3255 | 0.699 | 0.474 | 1.05 | 0.214 | 0.454 | 0.455 | 0.448 | 0.471 | 0.461 | 0.531 | – | 0.624 | 0.378 | 0.784 | 0.631 | 0.812 | 0.694 | 0.555 |
| HARA | 0.763 | 0.681 | 0.974 | 0.332 | 0.414 | 0.376 | 0.323 | 0.413 | 0.719 | 0.633 | 0.638 | 0.78 | 0.262 | 0.752 | 0.575 | 0.664 | 0.704 | 0.903 |
| HCC-15 | 0.867 | 0.99 | 0.853 | 0.851 | 0.683 | 0.731 | 0.743 | 0.783 | 0.387 | 0.367 | 0.419 | 0.432 | 0.365 | 0.721 | 0.651 | 0.652 | 0.713 | 0.956 |
